# Where a name gives a salt, the structure may show the parent alone. Read-outs that look alike come from different tables or passages of the source.
# How the values were obtained:
# [1] = target: T1, SARS-CoV-2 PLpro (nsp3 1564–1878) (Severe acute respiratory syndrome coronavirus 2, UniProt P0DTD1); assay: biochemical; parameters: FRET-quenched peptide (Pro3) cleavage by PLpro, 10 min pre-incubation, slope over 20 min, normalised to no-compound control; conditions: high concentration screen, read-out: % of control remaining
# [2] = target: T1, SARS-CoV-2 PLpro (nsp3 1564–1878); assay: biochemical; parameters: FRET-quenched peptide (Pro3) cleavage by PLpro, 10 min pre-incubation, slope over 20 min, normalised to no-compound control; conditions: low concentration screen, read-out: % of control remaining
smiles,measurement,setting,value
O=C1Cc2c([nH]c3ccc([N+](=O)[O-])cc23)-c2ccccc2N1 [Alsterpaullone],remaining activity at 3.75 µM,[1]; Well no.=255,106%
same,remaining activity at 3.75 µM,[1]; Well no.=2314,105%
same,remaining activity at 1.25 µM,[2]; Well no.=255,104%
same,remaining activity at 1.25 µM,[2]; Well no.=2314,101%
C=CC[C@]1(O)CC[C@H]2[C@@H]3CCC4=CC(=O)CCC4=C3C=C[C@@]21C [Altrenogest],remaining activity at 3.75 µM,[1]; Well no.=5020,93.9%
same,remaining activity at 1.25 µM,[2]; Well no.=5020,94.3%
CN(C)c1nc(N(C)C)nc(N(C)C)n1 [Altretamine],remaining activity at 3.75 µM,[1]; Well no.=8,98.2%
same,remaining activity at 3.75 µM,[1]; Well no.=2081,101%
same,remaining activity at 1.25 µM,[2]; Well no.=8,96%
same,remaining activity at 1.25 µM,[2]; Well no.=2081,101%
Cc1c(-c2ccnn2C)cc(C(=O)NCc2ccc(S(C)(=O)=O)cn2)c(=O)n1-c1cccc(C(F)(F)F)c1 [Alvelestat (AZD9668)],remaining activity at 3.75 µM,[1]; Well no.=9174,83.8%
same,remaining activity at 1.25 µM,[2]; Well no.=9174,95.1%
CCN(CCCc1ccccc1)CCCc1ccccc1 [Alverine (citrate)],remaining activity at 3.75 µM,[1]; Well no.=8203,106%
same,remaining activity at 1.25 µM,[2]; Well no.=8203,106%
CCN(CCCc1ccccc1)CCCc1ccccc1 [Alverine Citrate],remaining activity at 3.75 µM,[1]; Well no.=5277,91.3%
same,remaining activity at 1.25 µM,[2]; Well no.=5277,91.4%
C[C@H]1CN(C[C@H](Cc2ccccc2)C(=O)NCC(=O)O)CC[C@@]1(C)c1cccc(O)c1 [Alvimopan (dihydrate)],remaining activity at 3.75 µM,[1]; Well no.=6559,101%
same,remaining activity at 1.25 µM,[2]; Well no.=6559,100%
C[C@H]1CN(C[C@H](Cc2ccccc2)C(=O)NCC(=O)O)CC[C@@]1(C)c1cccc(O)c1 [Alvimopan],remaining activity at 3.75 µM,[1]; Well no.=6051,96.9%
same,remaining activity at 1.25 µM,[2]; Well no.=6051,95.7%
CN1CC[C@H](c2c(O)cc(O)c3c(=O)cc(-c4ccccc4Cl)oc23)[C@H](O)C1 [Alvocidib],remaining activity at 3.75 µM,[1]; Well no.=2695,104%
same,remaining activity at 1.25 µM,[2]; Well no.=2695,98.7%
NC12CC3CC(CC(C3)C1)C2 [Amantadine hydrochloride],remaining activity at 3.75 µM,[1]; Well no.=9,103%
same,remaining activity at 1.25 µM,[2]; Well no.=9,104%
NC12CC3CC(CC(C3)C1)C2 [Amantadine.HCl],remaining activity at 3.75 µM,[1]; Well no.=1653,97.4%
same,remaining activity at 1.25 µM,[2]; Well no.=1653,97.9%
O=S(=O)(O)c1ccc2c(N=Nc3ccc(S(=O)(=O)O)c4ccccc34)c(O)c(S(=O)(=O)O)cc2c1 [Amaranth],remaining activity at 3.75 µM,[1]; Well no.=8462,97.5%
same,remaining activity at 1.25 µM,[2]; Well no.=8462,98.1%
COC(c1ccccc1)(c1ccccc1)[C@H](Oc1nc(C)cc(C)n1)C(=O)O [Ambrisentan],remaining activity at 3.75 µM,[1]; Well no.=5270,92.5%
same,remaining activity at 3.75 µM,[1]; Well no.=6365,98.8%
same,remaining activity at 1.25 µM,[2]; Well no.=5270,94.8%
same,remaining activity at 1.25 µM,[2]; Well no.=6365,102%
Nc1c(Br)cc(Br)cc1CN[C@H]1CC[C@H](O)CC1 [Ambroxol HCl],remaining activity at 3.75 µM,[1]; Well no.=5311,97.1%
same,remaining activity at 1.25 µM,[2]; Well no.=5311,99.4%
Nc1c(Br)cc(Br)cc1CN[C@H]1CC[C@H](O)CC1 [Ambroxol],remaining activity at 3.75 µM,[1]; Well no.=1614,101%
same,remaining activity at 3.75 µM,[1]; Well no.=3892,97.9%
same,remaining activity at 1.25 µM,[2]; Well no.=1614,102%
same,remaining activity at 1.25 µM,[2]; Well no.=3892,98.1%
COc1cc(N)cn[n+]1-c1ccccc1 [Amezinium (methylsulfate)],remaining activity at 3.75 µM,[1]; Well no.=6567,104%
same,remaining activity at 1.25 µM,[2]; Well no.=6567,106%
CCn1cc(C(=O)O)c(=O)c2ccc(Cc3ccccc3)nc21 [Amfonelic acid],remaining activity at 3.75 µM,[1]; Well no.=446,98.5%
same,remaining activity at 1.25 µM,[2]; Well no.=446,98.4%
NCCCNCCSP(=O)(O)O [Amifostine],remaining activity at 3.75 µM,[1]; Well no.=115,104%
same,remaining activity at 3.75 µM,[1]; Well no.=2115,102%
same,remaining activity at 1.25 µM,[2]; Well no.=115,103%
same,remaining activity at 1.25 µM,[2]; Well no.=2115,99.3%
NCC[C@H](O)C(=O)N[C@@H]1C[C@H](N)[C@@H](O[C@H]2O[C@H](CN)[C@@H](O)[C@H](O)[C@H]2O)[C@H](O)[C@H]1O[C@H]1O[C@H](CO)[C@@H](O)[C@H](N)[C@H]1O [Amikacin hydrate],remaining activity at 3.75 µM,[1]; Well no.=5355,101%
same,remaining activity at 1.25 µM,[2]; Well no.=5355,97.3%
NCC[C@H](O)C(=O)N[C@@H]1C[C@H](N)[C@@H](O[C@H]2O[C@H](CN)[C@@H](O)[C@H](O)[C@H]2O)[C@H](O)[C@H]1O[C@H]1O[C@H](CO)[C@@H](O)[C@H](N)[C@H]1O [Amikacin sulfate],remaining activity at 3.75 µM,[1]; Well no.=5313,99.9%
same,remaining activity at 1.25 µM,[2]; Well no.=5313,107%
N=C(N)NC(=O)c1nc(Cl)c(N)nc1N [Amiloride HCl dihydrate],remaining activity at 3.75 µM,[1]; Well no.=5290,100%
same,remaining activity at 1.25 µM,[2]; Well no.=5290,101%
N=C(N)NC(=O)c1nc(Cl)c(N)nc1N [Amiloride hydrochloride],remaining activity at 3.75 µM,[1]; Well no.=148,94.6%
same,remaining activity at 1.25 µM,[2]; Well no.=148,96.9%
N=C(N)NC(=O)c1nc(Cl)c(N)nc1N [Amiloride],remaining activity at 3.75 µM,[1]; Well no.=1709,99%
same,remaining activity at 1.25 µM,[2]; Well no.=1709,102%
CN1[C@@H]2CC[C@H]1C[C@@H](OC(c1ccccc1)c1ccccc1N)C2 (stereo partly shown) [Aminobenztropine],remaining activity at 3.75 µM,[1]; Well no.=206,98.3%
same,remaining activity at 1.25 µM,[2]; Well no.=206,97.2%
NN=C(N)N [Aminoguanidine hemisulfate],remaining activity at 3.75 µM,[1]; Well no.=213,96.8%
same,remaining activity at 1.25 µM,[2]; Well no.=213,95.8%
N=C(N)NN [Aminoguanidine hydrochloride],remaining activity at 3.75 µM,[1]; Well no.=104,94.6%
same,remaining activity at 1.25 µM,[2]; Well no.=104,93%
Cn1c(=O)c2[nH]cnc2n(C)c1=O [Aminophylline],remaining activity at 3.75 µM,[1]; Well no.=1542,103%
same,remaining activity at 1.25 µM,[2]; Well no.=1542,101%
Nc1nc(N)c2nc(CNc3ccc(C(=O)N[C@@H](CCC(=O)O)C(=O)O)cc3)cnc2n1 [Aminopterin],remaining activity at 3.75 µM,[1]; Well no.=153,104%
same,remaining activity at 1.25 µM,[2]; Well no.=153,101%
CC(C)[C@H](CO)Nc1nc(Nc2cc(N)cc(Cl)c2)c2ncn(C(C)C)c2n1 [Aminopurvalanol A - (2R)-2-[[6-[(3-Amino-5-chlorophenyl)amino]-9-(1-methylethyl)-9H-purin-2-yl]amino]-3-methyl-1-butanol],remaining activity at 3.75 µM,[1]; Well no.=2484,108%
same,remaining activity at 1.25 µM,[2]; Well no.=2484,101%
CC(C)[C@H](CO)Nc1nc(Nc2cc(N)cc(Cl)c2)c2ncn(C(C)C)c2n1 [Aminopurvalanol A],remaining activity at 3.75 µM,[1]; Well no.=2322,97.4%
same,remaining activity at 1.25 µM,[2]; Well no.=2322,97.1%
CCCCc1oc2ccccc2c1C(=O)c1cc(I)c(OCCN(CC)CC)c(I)c1 [Amiodarone hydrochloride],remaining activity at 3.75 µM,[1]; Well no.=198,98.7%
same,remaining activity at 1.25 µM,[2]; Well no.=198,97%
CCCCc1oc2ccccc2c1C(=O)c1cc(I)c(OCCN(CC)CC)c(I)c1 [Amiodarone.HCl],remaining activity at 3.75 µM,[1]; Well no.=1591,103%
same,remaining activity at 1.25 µM,[2]; Well no.=1591,104%
CN(C)CCCO[C@@H]1[C@H]2OC(C)(C)O[C@H]2O[C@@H]1[C@H](O)CO [Amiprilose hydrochloride],remaining activity at 3.75 µM,[1]; Well no.=207,103%
same,remaining activity at 1.25 µM,[2]; Well no.=207,101%
